PMC10484922, “Discovery of a selective and biologically active low-molecular weight antagonist of human interleukin-1β” (Nature Communications, 2023)
Where “and” joins values, the source holds several entries; their conditions need not be identical. Equal values may be shown once. Read-outs that look alike come from different tables or passages of the source.

Experiments:
[1] = target: IL-1β (Homo sapiens, UniProt P01584); assay: TR-FRET IL-1β/hIL-1R1 receptor displacement assay; format: biochemical
IL-1β, sequence (P01584 117-269): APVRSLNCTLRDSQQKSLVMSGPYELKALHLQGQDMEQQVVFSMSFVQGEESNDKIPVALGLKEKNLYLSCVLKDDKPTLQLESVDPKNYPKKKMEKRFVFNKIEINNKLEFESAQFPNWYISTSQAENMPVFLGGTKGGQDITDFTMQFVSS
Experimental: After 1 h incubation at room temperature, hIL-1R1 (1–332; Alexa 647 labeled; 50 nM final concentration) and anti-His-Europium W1024 (Perkin Elmer; Cat.No. AD0401, 1 nM final concentration) were added to a final volume of 10 μl per well. […] All experiments were run in triplicates.

[2] = system: HEK-Blue IL-1β cells stimulated with hIL-1β; assay: HEK293 reporter gene assay, hIL-1β as trigger; format: cell-based, human; set-up: RGA HEK293, average / RGA HEK293, curve fit: unit not given here; settings: for RGA HEK293, average / RGA HEK293, curve fit: per experiment
[3] = system: HEK-Blue IL-1β cells stimulated with hIL-1α; assay: HEK293 reporter gene assay, hIL-1α as trigger; format: cell-based, human
[4] = system: normal human dermal fibroblasts stimulated with hIL-1β; assay: Human fibroblast IL-6 release assay, hIL-1β stimulated; format: cell-based
Outline: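 Normal human dermal fibroblasts (neonatal, passage ≤14) treated with graded hIL-1α or hIL-1β that had been premixed 1 h with compound, then incubated 6 h. Secreted IL-6 in supernatant quantified by ELISA or HTRF.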

[5] = IL-1beta, 0.01 uM, per experiment
[6] = IL-1beta, 0.02 uM, per experiment
[7] = IL-1beta, 0.1 uM, per experiment
[8] = IL-1beta, 0.2 uM, per experiment
[9] = IL-1beta, 0.6 uM, per experiment
[10] = IL-1beta, 63 uM, per experiment

Structure (SMILES): Cc1ccc2c(c1)NC(=O)[C@@]2(c1cn[nH]c1)c1cc(-c2ccc(C(=O)O)cc2C(=O)O)ccc1O [Compound (S)-2]
- TR-FRET calculated % inhibition [1, 5]: -3% and -1% and 0%
- TR-FRET raw data [1, 5]: 90 and 159 and 163 and 162 and 161
- TR-FRET calculated % inhibition [1, 6]: -1% and 1% and 0%
- TR-FRET raw data [1, 6]: 89 and 157 and 158 and 161
- TR-FRET calculated % inhibition [1, 7]: 1% and 3%
- TR-FRET raw data [1, 7]: 87 and 156 and 155 and 157
- TR-FRET calculated % inhibition [1, 8]: 10% and 7%
- TR-FRET raw data [1, 8]: 78 and 144 and 149 and 146 and 151
- inhibition at 0.2 µM ([1]; IL-1beta, 0.2 uM, per experiment, read-out: TR-FRET calculated % inhibition): 13%
- TR-FRET calculated % inhibition [1, 9]: 20% and 23% and 21%
- TR-FRET raw data [1, 9]: 67 and 130 and 131 and 128
- inhibition at 0.6 µM ([1]; IL-1beta, 0.6 uM, per experiment, read-out: TR-FRET calculated % inhibition): 28%
- TR-FRET calculated % inhibition ([1]; IL-1beta, 2 uM, per experiment): 40% and 39%
- inhibition at 2 µM ([1]; IL-1beta, 2 uM, per experiment, read-out: TR-FRET calculated % inhibition): 55%
- TR-FRET calculated % inhibition ([1]; IL-1beta, 6 uM, per experiment): 61% and 62% and 60%
- inhibition at 6 µM ([1]; IL-1beta, 6 uM, per experiment, read-out: TR-FRET calculated % inhibition): 72%
- TR-FRET calculated % inhibition ([1]; IL-1beta, 20 uM, per experiment): 80% and 78% and 79%
- inhibition at 20 µM ([1]; IL-1beta, 20 uM, per experiment, read-out: TR-FRET calculated % inhibition): 88%
- TR-FRET calculated % inhibition [1, 10]: 92%
- TR-FRET raw data [1, 10]: 16 and 27 and 29 and 28
- inhibition at 63 µM ([1]; IL-1beta, 63 uM, per experiment, read-out: TR-FRET calculated % inhibition): 95%
- TR-FRET raw data ([1]; IL-1beta, 200 uM, per experiment): 12 and 16 and 17
- inhibition at 200 µM ([1]; IL-1beta, 200 uM, per experiment, read-out: TR-FRET calculated % inhibition): 100%
- IC50 ([1]; Il1b wt, read-out: TR-FRET IC50, individual experiments): 2.1 µM and 4.2 µM and 4.6 µM and 4.4 µM and 4.7 µM
- IC50 ([1]; read-out: TR-FRET IL-1β IC50): 4 ± 1.1 µM
- reporter activity induced by hIL-1β [2]: efficiently inhibited the reporter activity induced by hIL-1β
- RGA HEK293, average ([2]; 3.125 uM): 29.4705 and 28.9635 and 25.1151 and 32.9049 and 27.4138 and 39.0499 and 38.2996 and 37.0235
- RGA HEK293, curve fit ([2]; 3.125 uM): 30.4654 and 27.1823 and 20.8299 and 28.629 and 26.4966 and 33.5898 and 33.5814 and 32.8647
- RGA HEK293, average ([2]; 6.25 uM): 54.0943 and 50.2167 and 45.7315 and 52.6564 and 46.7509 and 54.9517 and 53.8737 and 52.9197
- RGA HEK293, curve fit ([2]; 6.25 uM): 53.4932 and 49.1303 and 45.443 and 53.6627 and 46.4685 and 55.6955 and 53.7771 and 53.2389
- RGA HEK293, average ([2]; 12.5 uM): 72.3524 and 70.9823 and 68.0128 and 77.9349 and 67.4822 and 74.7182 and 71.0369 and 70.438
- RGA HEK293, curve fit ([2]; 12.5 uM): 72.9412 and 71.3657 and 68.2903 and 76.9195 and 67.593 and 75.1363 and 72.2128 and 71.5012
- RGA HEK293, average ([2]; 25 uM): 87.2975 and 85.2654 and 82.5363 and 87.9606 and 82.8729 and 86.3527 and 84.3067 and 83.9822
- RGA HEK293, curve fit ([2]; 25 uM): 85.8483 and 86.5666 and 83.9461 and 90.5811 and 83.387 and 87.7879 and 85.1743 and 84.4134
- RGA HEK293, average ([2]; 50 uM): 94.5457 and 94.2398 and 91.9589 and 95.03 and 93.0282 and 93.3172 and 89.9086 and 89.6999
- RGA HEK293, curve fit ([2]; 50 uM): 93.0784 and 94.3616 and 92.5512 and 96.5403 and 92.3805 and 94.467 and 92.6851 and 92.0672
- RGA HEK293, average ([2]; 100 uM): 97.772 and 97.6887 and 95.147 and 97.9006 and 96.9482 and 94.6055 and 95.59 and 95.4988
- RGA HEK293, curve fit ([2]; 100 uM): 96.7406 and 97.7627 and 96.7045 and 98.7877 and 96.7132 and 97.5984 and 96.5496 and 96.1302
- IC50 ([2]; Homo sapiens, hIL-1β, read-out: RGA HEK293 IC50): 5.3 ± 0.3 µM
- IC50 ([2]; Homo sapiens, source data, read-out: RGA HEK293 IC50, individual experiments): 4.15 µM
- IC50 ([2]; source data, read-out: RGA HEK293 IC50, individual experiments): 6.4 µM and 5.37 µM and 5.67 µM and 6.98 µM and 4.84 µM and 5.05 µM and 4.72 µM
- reporter activity with hIL-1α as trigger [3]: ineffective
- block of hIL-1β driven IL-6 release [4]: could inhibit the response to hIL-1β
